Measurements taken from PMC7997453 (Pharmaceuticals, 2021).
Where two headings read alike, the source gives them in different places.

Assays:
[1] = ref supplement 2; cited from earlier work
CYP3A4 [2] = biological target: T1, CYP3A4 (Homo sapiens, UniProt P08684); test: Reversible inhibition (RI) assay on tacrolimus metabolism, CYP3A5*3/*3 HLM
Protocol: (§3) The reactions were started with the addition of nicotinamide adenine dinucleotide phosphate (NADPH, 1 mM) and stopped 10 min later upon adding a double volume of ice-cold methanol. […] Reactions were terminated with the same method as the CYP3A4 group. All incubations were carried out in triplicate. […] Dixon plots were used to analyze the inhibitory type of RI assay and Ki value.

CYP3A4 [3] = biological target: T1, CYP3A4; test: Time-dependent inhibition (TDI) assay, testosterone-6β-hydroxylation, CYP3A5*3/*3 HLM; format: biochemical
Protocol: (§1) Testosterone-6β-hydroxylation was used to measure the activity of CYP3A4 and CYP3A5. […] With the corresponding double-reciprocal plot, the derived kinetic constants from the inactivation experiments were estimated.
(§2) Two-step incubation was performed to evaluate the TDI assay. […] After pre-incubation for 3 min at 37 °C in a shaking water bath, the enzymatic reaction was started upon adding NADPH (1 mM) with various pre-reaction time (0, 5, 10, 20, 30 min). For TDI on CYP3A5, NADPH (1 mM) was added to the incubation which contained CYP3A5*1/*3 HLM (0.5 mg/mL) and CYP3cide (1.2 μM) after being pre-warmed for 3 min. […] Next step, an aliquot (20 μL) of the primary pre-reaction mixture was transferred to 180 μL of the secondary incubation system which consisted of PBS (0.1 M), testosterone (200 μM) and NADPH (1 mM). The secondary reaction was incubated at 37 °C for 10 min and terminated by adding 400 μL ice-cold acetonitrile containing prednisolone as the internal standard (0.3150 μM for CYP3A5*3/*3 HLM incubation and 0.07875 μM for CYP3A5*1/*3 HLM incubation). […] The observed inactivation rate of the affected enzyme (kobs) was the negative slope of the linear regression. kinact and KI were calculated using Equation (1) by the double-reciprocal plot. I represents the concentration of the inhibitor. (1) kobs=kinact×I/[…]

[4] = tissue to plasma partition coefficients; settings: In-house data
Source text: All PBPK simulations were constructed using the population-based ADME(absorption, distribution, metabolism, and excretion) simulator (version 13.1.1, Simcyp® Ltd., Certara, Sheffield, UK).

[5] = set-up: method as in PMID 24195812; settings: rats; oral dose of 0.024 mM/kg STA or SIA; cited from earlier work
CYP3A5 [6] = biological target: T2, CYP3A5 (Homo sapiens, UniProt P20815); test: Reversible inhibition (RI) assay on tacrolimus metabolism, CYP3A5*1/*3 HLM with CYP3cide
T2 sequence (P20815 whole entry): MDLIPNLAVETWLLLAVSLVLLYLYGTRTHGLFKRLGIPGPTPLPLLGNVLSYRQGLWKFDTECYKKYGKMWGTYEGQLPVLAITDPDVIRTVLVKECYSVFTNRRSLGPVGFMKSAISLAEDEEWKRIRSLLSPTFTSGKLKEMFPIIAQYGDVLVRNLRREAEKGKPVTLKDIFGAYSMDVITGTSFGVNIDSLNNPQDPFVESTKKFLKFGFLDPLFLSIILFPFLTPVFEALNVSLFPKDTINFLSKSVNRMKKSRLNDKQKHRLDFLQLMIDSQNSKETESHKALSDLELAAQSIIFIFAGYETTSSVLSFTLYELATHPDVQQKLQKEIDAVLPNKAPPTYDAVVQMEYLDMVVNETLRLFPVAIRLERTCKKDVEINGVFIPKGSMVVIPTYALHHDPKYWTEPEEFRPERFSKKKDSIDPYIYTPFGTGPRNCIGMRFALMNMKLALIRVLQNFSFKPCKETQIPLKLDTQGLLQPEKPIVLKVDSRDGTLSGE
Protocol: as §3

CYP3A5 [7] = biological target: T2, CYP3A5; test: Time-dependent inhibition (TDI) assay, testosterone-6β-hydroxylation, CYP3A5*1/*3 HLM with CYP3cide; format: biochemical
Protocol: as §1, §2

[8] = intrinsic clearance in human liver microsomes; format: in vitro ADME; settings: In-house data, read-out: CLint,HLM
[9] = ref supplement 1; cited from earlier work
[10] = set-up: method as in https://pubchem.ncbi.nlm.nih.gov/; settings: ref https://pubchem.ncbi.nlm.nih.gov/; cited from earlier work
CYP3A = settings: rat liver microsomes, cited from earlier work
[11] = 2 μM SIA, pre-incubation 10 min
[12] = 2 μM SIA, pre-incubation 20 min
[13] = 2 μM SIA, pre-incubation 30 min
[14] = 4 μM SIA, pre-incubation 10 min
[15] = 4 μM SIA, pre-incubation 20 min
[16] = 4 μM SIA, pre-incubation 30 min
[17] = 8 μM SIA, pre-incubation 10 min
[18] = 8 μM SIA, pre-incubation 20 min
[19] = 8 μM SIA, pre-incubation 30 min
[20] = 16 μM SIA, pre-incubation 0 min
[21] = 16 μM SIA, pre-incubation 5 min
[22] = 16 μM SIA, pre-incubation 10 min
[23] = 16 μM SIA, pre-incubation 20 min
[24] = 16 μM SIA, pre-incubation 30 min

T1 sequence (P08684 whole entry): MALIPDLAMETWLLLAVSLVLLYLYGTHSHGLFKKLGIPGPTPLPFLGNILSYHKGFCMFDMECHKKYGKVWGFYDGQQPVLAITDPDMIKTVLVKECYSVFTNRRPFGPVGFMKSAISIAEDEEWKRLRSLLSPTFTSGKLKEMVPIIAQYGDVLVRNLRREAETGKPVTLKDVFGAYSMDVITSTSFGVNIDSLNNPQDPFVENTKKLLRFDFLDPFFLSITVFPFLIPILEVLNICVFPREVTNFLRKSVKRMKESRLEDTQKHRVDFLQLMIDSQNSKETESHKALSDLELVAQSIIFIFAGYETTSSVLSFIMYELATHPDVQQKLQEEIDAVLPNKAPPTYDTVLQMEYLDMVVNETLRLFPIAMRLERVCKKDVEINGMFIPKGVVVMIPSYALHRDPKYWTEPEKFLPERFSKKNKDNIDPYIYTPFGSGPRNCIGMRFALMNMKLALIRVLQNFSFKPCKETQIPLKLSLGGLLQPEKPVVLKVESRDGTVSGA

Dixon plot data point, Figure 2C, Mean (CYP3A4 [2]; 2.4 μM SIA, 0.2 μM tacrolimus): 20.0000
Dixon plot data point, Figure 2C, Mean (CYP3A4 [2]; 2.4 μM SIA, 0.4 μM tacrolimus): 10.0000
Dixon plot data point, Figure 2C, Mean (CYP3A4 [2]; 2.4 μM SIA, 0.8 μM tacrolimus): 3.3452
Dixon plot data point, Figure 2C, Mean (CYP3A4 [2]; 2.4 μM SIA, 1.6 μM tacrolimus): 1.4662
Dixon plot data point, Figure 2C, Mean (CYP3A4 [2]; 7.2 μM SIA, 0.4 μM tacrolimus): 10.0565
Dixon plot data point, Figure 2C, Mean (CYP3A4 [2]; 7.2 μM SIA, 1.6 μM tacrolimus): 1.7598
Dixon plot data point, Figure 2C, Mean (CYP3A4 [2]; 12 μM SIA, 0.2 μM tacrolimus): 20.3445
Dixon plot data point, Figure 2C, Mean (CYP3A4 [2]; 12 μM SIA, 0.4 μM tacrolimus): 9.8175
Dixon plot data point, Figure 2C, Mean (CYP3A4 [2]; 12 μM SIA, 0.8 μM tacrolimus): 4.5304
Dixon plot data point, Figure 2C, Mean (CYP3A4 [2]; 12 μM SIA, 1.6 μM tacrolimus): 1.6431
reversible inhibition on CYP3A4 (in words) (CYP3A4 [2]; CYP3A5*3/*3 HLM, substrate tacrolimus): little reversible inhibition
TDI profile on CYP3A4 (in words) (CYP3A4 [3]): slight TDI
log of percentage of control activity, Figure 4A, Mean (CYP3A4 [3]; 2 μM SIA, pre-incubation 0 min): 4.6052
log of percentage of control activity, Figure 4A, Mean (CYP3A4 [3]; 2 μM SIA, pre-incubation 5 min): 4.5754
log of percentage of control activity, Figure 4A, Mean (CYP3A4 [3]; [11]): 4.5165
log of percentage of control activity, Figure 4A, Mean (CYP3A4 [3]; [12]): 4.4602
log of percentage of control activity, Figure 4A, Mean (CYP3A4 [3]; [13]): 4.3520
log of percentage of control activity, Figure 4A, Mean (CYP3A4 [3]; 4 μM SIA, pre-incubation 0 min): 4.6052
log of percentage of control activity, Figure 4A, Mean (CYP3A4 [3]; 4 μM SIA, pre-incubation 5 min): 4.5505
log of percentage of control activity, Figure 4A, Mean (CYP3A4 [3]; [14]): 4.4420
log of percentage of control activity, Figure 4A, Mean (CYP3A4 [3]; [15]): 4.3925
log of percentage of control activity, Figure 4A, Mean (CYP3A4 [3]; [16]): 4.2490
log of percentage of control activity, Figure 4A, Mean (CYP3A4 [3]; 8 μM SIA, pre-incubation 0 min): 4.6029
log of percentage of control activity, Figure 4A, Mean (CYP3A4 [3]; 8 μM SIA, pre-incubation 5 min): 4.5164
log of percentage of control activity, Figure 4A, Mean (CYP3A4 [3]; [17]): 4.3979
log of percentage of control activity, Figure 4A, Mean (CYP3A4 [3]; [18]): 4.2781
log of percentage of control activity, Figure 4A, Mean (CYP3A4 [3]; [19]): 4.1876
log of percentage of control activity, Figure 4A, Mean (CYP3A4 [3]; [20]): 4.6052
log of percentage of control activity, Figure 4A, Mean (CYP3A4 [3]; [21]): 4.4518
log of percentage of control activity, Figure 4A, Mean (CYP3A4 [3]; [22]): 4.3776
log of percentage of control activity, Figure 4A, Mean (CYP3A4 [3]; [23]): 4.2397
log of percentage of control activity, Figure 4A, Mean (CYP3A4 [3]; [24]): 4.0738
kinact/KI (CYP3A4 [3]; CYP3A4): 125 M⁻¹ s⁻¹
KI (CYP3A4 [3]; CYP3A4, testosterone-6β-hydroxylation): 2.54 µM
kinact (CYP3A4 [3]; human, CYP3A5*3/*3 human liver microsomes, probe testosterone (200 μM), CYP3A4, testosterone-6β-hydroxylation): 0.000317 s⁻¹
Kp ([4]; adipose, read-out: Kp Adipose): 36.4
Kp ([4]; brain, read-out: Kp Brain): 7.4
Kp ([4]; gut, read-out: Kp Gut): 210
Kp ([4]; heart, read-out: Kp Heart): 39.5
Kp ([4]; kidney, read-out: Kp Kidney): 5.9
Kp ([4]; liver, read-out: Kp Liver): 3.9
Kp ([4]; lung, read-out: Kp Lung): 19
Kp ([4]; spleen, read-out: Kp Spleen): 7.6
Ki (CYP3A5 [6]): 8.74 µM
Dixon plot data point, Figure 2D, Mean (CYP3A5 [6]; 2.4 μM SIA, 0.2 μM tacrolimus): 32.0000
Dixon plot data point, Figure 2D, Mean (CYP3A5 [6]; 2.4 μM SIA, 0.4 μM tacrolimus): 17.6167
Dixon plot data point, Figure 2D, Mean (CYP3A5 [6]; 2.4 μM SIA, 0.8 μM tacrolimus): 9.2000
Dixon plot data point, Figure 2D, Mean (CYP3A5 [6]; 2.4 μM SIA, 1.6 μM tacrolimus): 6.2790
Dixon plot data point, Figure 2D, Mean (CYP3A5 [6]; 7.2 μM SIA, 0.4 μM tacrolimus): 21.6176
Dixon plot data point, Figure 2D, Mean (CYP3A5 [6]; 7.2 μM SIA, 1.6 μM tacrolimus): 6.9243
Dixon plot data point, Figure 2D, Mean (CYP3A5 [6]; 12 μM SIA, 0.2 μM tacrolimus): 60.0000
Dixon plot data point, Figure 2D, Mean (CYP3A5 [6]; 12 μM SIA, 0.4 μM tacrolimus): 30.1990
Dixon plot data point, Figure 2D, Mean (CYP3A5 [6]; 12 μM SIA, 0.8 μM tacrolimus): 15.0500
Dixon plot data point, Figure 2D, Mean (CYP3A5 [6]; 12 μM SIA, 1.6 μM tacrolimus): 7.2381
TDI profile on CYP3A5 (in words) (CYP3A5 [7]): slight TDI
log of percentage of control activity, Figure 4C, Mean (CYP3A5 [7]; 2 μM SIA, pre-incubation 0 min): 4.6052
log of percentage of control activity, Figure 4C, Mean (CYP3A5 [7]; 2 μM SIA, pre-incubation 5 min): 4.5539
log of percentage of control activity, Figure 4C, Mean (CYP3A5 [7]; [11]): 4.5218
log of percentage of control activity, Figure 4C, Mean (CYP3A5 [7]; [12]): 4.4427
log of percentage of control activity, Figure 4C, Mean (CYP3A5 [7]; [13]): 4.3791
log of percentage of control activity, Figure 4C, Mean (CYP3A5 [7]; 4 μM SIA, pre-incubation 0 min): 4.6052
log of percentage of control activity, Figure 4C, Mean (CYP3A5 [7]; 4 μM SIA, pre-incubation 5 min): 4.4998
log of percentage of control activity, Figure 4C, Mean (CYP3A5 [7]; [14]): 4.5031
log of percentage of control activity, Figure 4C, Mean (CYP3A5 [7]; [15]): 4.4869
log of percentage of control activity, Figure 4C, Mean (CYP3A5 [7]; [16]): 4.2859
log of percentage of control activity, Figure 4C, Mean (CYP3A5 [7]; 8 μM SIA, pre-incubation 0 min): 4.6052
log of percentage of control activity, Figure 4C, Mean (CYP3A5 [7]; 8 μM SIA, pre-incubation 5 min): 4.4632
log of percentage of control activity, Figure 4C, Mean (CYP3A5 [7]; [17]): 4.4150
log of percentage of control activity, Figure 4C, Mean (CYP3A5 [7]; [18]): 4.4028
log of percentage of control activity, Figure 4C, Mean (CYP3A5 [7]; [19]): 4.2282
log of percentage of control activity, Figure 4C, Mean (CYP3A5 [7]; [20]): 4.5539
log of percentage of control activity, Figure 4C, Mean (CYP3A5 [7]; [21]): 4.4523
log of percentage of control activity, Figure 4C, Mean (CYP3A5 [7]; [22]): 4.3701
log of percentage of control activity, Figure 4C, Mean (CYP3A5 [7]; [23]): 4.2585
log of percentage of control activity, Figure 4C, Mean (CYP3A5 [7]; [24]): 4.1607
kinact/KI (CYP3A5 [7]; CYP3A5): 113 M⁻¹ s⁻¹
KI (CYP3A5 [7]; CYP3A5, testosterone-6β-hydroxylation): 2.07 µM
kinact (CYP3A5 [7]; human, CYP3A5*1/*3 human liver microsomes with CYP3cide, probe testosterone (200 μM), with CYP3cide ([…]), CYP3A5, testosterone-6β-hydroxylation): 0.000233 s⁻¹
microsomal CLint [8]: 130 µL/min/mg
Compound: COc1cc2c(c(OC)c1OC)-c1c(cc(OC)c(OC)c1OC)C[C@H](C)[C@H](C)C2 [SIA, schisandrin A]
fu plasma [1]: 0.0334
increase of systemic exposure of tacrolimus [5]: 2.37 fold
Log Po:w [9]: 5.265
HBD [10]: 0
PSA [10]: 55.38 Å2
Ki (CYP3A; midazolam 1′-hydroxylation): 5.83 µM
Ki (CYP3A; midazolam 4-hydroxylation): 4.8 µM
